# PubChem BioAssay (NCI)
#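 Method: 48-hour compound exposure of cells in 96-well plates, five concentrations, linear interpolation of endpoints. TGI marks complete inhibition of growth.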
# Legend:
# Assay in all cases: NCI tumour cell line growth inhibition, 48 h
# SR leukemia = system: SR leukemia
# NCI-H23 lung = system: NCI-H23 lung
# K-562 leukemia = system: K-562 leukemia
# LOX IMVI melanoma = system: LOX IMVI melanoma
# HCC-2998 colon = system: HCC-2998 colon
# UO-31 renal = system: UO-31 renal
# COLO 205 colon = system: COLO 205 colon
# MDA-MB-435 = system: MDA-MB-435
# SF-295 CNS = system: SF-295 CNS
# T-47D breast = system: T-47D breast
# NCI/ADR-RES ovarian = system: NCI/ADR-RES ovarian
# SF-539 CNS = system: SF-539 CNS
# SNB-75 CNS = system: SNB-75 CNS
# SK-MEL-5 melanoma = system: SK-MEL-5 melanoma
# TK-10 renal = system: TK-10 renal
# UACC-257 melanoma = system: UACC-257 melanoma
# U251 CNS = system: U251 CNS
# OVCAR-3 ovarian = system: OVCAR-3 ovarian
# NCI-H522 lung = system: NCI-H522 lung
# SF-268 CNS = system: SF-268 CNS
# SW-620 colon = system: SW-620 colon
# HOP-62 NSCLC = system: HOP-62 NSCLC
# SNB-19 CNS = system: SNB-19 CNS
# 786-0 renal = system: 786-0 renal
# RPMI-8226 leukemia = system: RPMI-8226 leukemia
# SN12C renal = system: SN12C renal
# MOLT-4 leukemia = system: MOLT-4 leukemia
# UACC-62 melanoma = system: UACC-62 melanoma
# EKVX NSCLC = system: EKVX NSCLC
# A498 renal = system: A498 renal
# OVCAR-4 ovarian = system: OVCAR-4 ovarian
# MDA-N = system: MDA-N
# CCRF-CEM leukemia = system: CCRF-CEM leukemia
# HL-60(TB) leukemia = system: HL-60(TB) leukemia
# HCT-15 colon = system: HCT-15 colon
# SK-MEL-2 melanoma = system: SK-MEL-2 melanoma
# A549 NSCLC = system: A549 NSCLC
# PC-3 prostate = system: PC-3 prostate
# SK-OV-3 ovarian = system: SK-OV-3 ovarian
# MALME-3M melanoma = system: MALME-3M melanoma
# MDA-MB-231 breast = system: MDA-MB-231 breast
# OVCAR-8 ovarian = system: OVCAR-8 ovarian
# SK-MEL-28 melanoma = system: SK-MEL-28 melanoma
# M14 melanoma = system: M14 melanoma
# HOP-92 NSCLC = system: HOP-92 NSCLC
# CAKI-1 renal = system: CAKI-1 renal
# ACHN renal = system: ACHN renal
# HS 578T breast = system: HS 578T breast
# NCI-H226 lung = system: NCI-H226 lung
# HCT-116 colon = system: HCT-116 colon
# RXF 393 renal = system: RXF 393 renal
# OVCAR-5 ovarian = system: OVCAR-5 ovarian
# IGROV1 ovarian = system: IGROV1 ovarian
# HT29 colon = system: HT29 colon
# KM12 colon = system: KM12 colon
# NCI-H460 lung = system: NCI-H460 lung
# DU-145 prostate = system: DU-145 prostate
# BT-549 breast = system: BT-549 breast
# MCF7 breast = system: MCF7 breast
compound,measurement,setting,value
N#Cc1c(N2CCCC2)ncn(-c2ccccc2)c1=S,TGI,SR leukemia,> 100 µM
same,TGI,NCI-H23 lung,> 100 µM
same,TGI,K-562 leukemia,> 100 µM
same,TGI,LOX IMVI melanoma,> 100 µM
same,TGI,HCC-2998 colon,> 100 µM
same,TGI,UO-31 renal,> 100 µM
same,TGI,COLO 205 colon,> 100 µM
same,TGI,MDA-MB-435,> 100 µM
same,TGI,SF-295 CNS,> 100 µM
same,TGI,T-47D breast,> 100 µM
same,TGI,NCI/ADR-RES ovarian,> 100 µM
same,TGI,SF-539 CNS,> 100 µM
same,TGI,SNB-75 CNS,> 100 µM
same,TGI,SK-MEL-5 melanoma,> 100 µM
same,TGI,TK-10 renal,> 100 µM
same,TGI,UACC-257 melanoma,> 100 µM
same,TGI,U251 CNS,> 100 µM
same,TGI,OVCAR-3 ovarian,> 100 µM
same,TGI,NCI-H522 lung,> 100 µM
same,TGI,SF-268 CNS,> 100 µM
same,TGI,SW-620 colon,> 100 µM
same,TGI,HOP-62 NSCLC,> 100 µM
same,TGI,SNB-19 CNS,> 100 µM
same,TGI,786-0 renal,> 100 µM
same,TGI,RPMI-8226 leukemia,> 100 µM
same,TGI,SN12C renal,> 100 µM
same,TGI,MOLT-4 leukemia,> 100 µM
same,TGI,UACC-62 melanoma,69.3 µM
same,TGI,EKVX NSCLC,> 100 µM
same,TGI,A498 renal,> 100 µM
same,TGI,OVCAR-4 ovarian,> 100 µM
same,TGI,MDA-N,> 100 µM
same,TGI,CCRF-CEM leukemia,> 100 µM
same,TGI,HL-60(TB) leukemia,> 100 µM
same,TGI,HCT-15 colon,> 100 µM
same,TGI,SK-MEL-2 melanoma,> 100 µM
same,TGI,A549 NSCLC,> 100 µM
same,TGI,PC-3 prostate,> 100 µM
same,TGI,SK-OV-3 ovarian,> 100 µM
same,TGI,MALME-3M melanoma,> 100 µM
same,TGI,MDA-MB-231 breast,> 100 µM
same,TGI,OVCAR-8 ovarian,> 100 µM
same,TGI,SK-MEL-28 melanoma,> 100 µM
same,TGI,M14 melanoma,> 100 µM
same,TGI,HOP-92 NSCLC,> 100 µM
same,TGI,CAKI-1 renal,> 100 µM
same,TGI,ACHN renal,> 100 µM
same,TGI,HS 578T breast,> 100 µM
same,TGI,NCI-H226 lung,> 100 µM
same,TGI,HCT-116 colon,> 100 µM
same,TGI,RXF 393 renal,> 100 µM
same,TGI,OVCAR-5 ovarian,> 100 µM
same,TGI,IGROV1 ovarian,> 100 µM
same,TGI,HT29 colon,> 100 µM
same,TGI,KM12 colon,> 100 µM
same,TGI,NCI-H460 lung,> 100 µM
same,TGI,DU-145 prostate,> 100 µM
same,TGI,BT-549 breast,> 100 µM
same,TGI,MCF7 breast,> 100 µM
COc1ccc(C(CC(C)=O)c2c(O)c3ccccc3oc2=O)cc1OC (stereo not drawn),TGI,SR leukemia,> 100 µM
same,TGI,NCI-H23 lung,> 100 µM
same,TGI,K-562 leukemia,> 100 µM
same,TGI,LOX IMVI melanoma,> 100 µM
same,TGI,HCC-2998 colon,> 100 µM
same,TGI,UO-31 renal,> 100 µM
same,TGI,COLO 205 colon,> 100 µM
same,TGI,MDA-MB-435,> 100 µM
same,TGI,SF-295 CNS,> 100 µM
same,TGI,T-47D breast,> 100 µM
same,TGI,NCI/ADR-RES ovarian,> 100 µM
same,TGI,SF-539 CNS,> 100 µM
same,TGI,SNB-75 CNS,> 100 µM
same,TGI,SK-MEL-5 melanoma,> 100 µM
same,TGI,TK-10 renal,> 100 µM
same,TGI,UACC-257 melanoma,> 100 µM
same,TGI,U251 CNS,> 100 µM
same,TGI,OVCAR-3 ovarian,> 100 µM
same,TGI,NCI-H522 lung,> 100 µM
same,TGI,SF-268 CNS,> 100 µM
same,TGI,SW-620 colon,> 100 µM
same,TGI,HOP-62 NSCLC,> 100 µM
same,TGI,SNB-19 CNS,> 100 µM
same,TGI,786-0 renal,> 100 µM
same,TGI,RPMI-8226 leukemia,> 100 µM
same,TGI,SN12C renal,> 100 µM
same,TGI,MOLT-4 leukemia,> 100 µM
same,TGI,UACC-62 melanoma,> 100 µM
same,TGI,EKVX NSCLC,> 100 µM
same,TGI,A498 renal,> 100 µM
same,TGI,OVCAR-4 ovarian,> 100 µM
same,TGI,MDA-N,> 100 µM
same,TGI,CCRF-CEM leukemia,> 100 µM
same,TGI,HL-60(TB) leukemia,> 100 µM
same,TGI,HCT-15 colon,> 100 µM
same,TGI,SK-MEL-2 melanoma,> 100 µM
same,TGI,A549 NSCLC,> 100 µM
same,TGI,PC-3 prostate,> 100 µM
same,TGI,SK-OV-3 ovarian,> 100 µM
same,TGI,MALME-3M melanoma,> 100 µM
same,TGI,MDA-MB-231 breast,> 100 µM
same,TGI,OVCAR-8 ovarian,> 100 µM
same,TGI,SK-MEL-28 melanoma,> 100 µM
same,TGI,M14 melanoma,> 100 µM
same,TGI,HOP-92 NSCLC,> 100 µM
same,TGI,CAKI-1 renal,> 100 µM
same,TGI,ACHN renal,> 100 µM
same,TGI,HS 578T breast,> 100 µM
same,TGI,NCI-H226 lung,> 100 µM
same,TGI,HCT-116 colon,> 100 µM
same,TGI,RXF 393 renal,> 100 µM
same,TGI,OVCAR-5 ovarian,> 100 µM
same,TGI,IGROV1 ovarian,> 100 µM
same,TGI,HT29 colon,> 100 µM
same,TGI,KM12 colon,> 100 µM
same,TGI,NCI-H460 lung,> 100 µM
same,TGI,DU-145 prostate,> 100 µM
same,TGI,BT-549 breast,> 100 µM
same,TGI,MCF7 breast,> 100 µM
